Data set [1] in a line: Pharmacokinetics after single oral administration to fed male beagle dogs (plasma concentrations by LC-MS, non-compartmental analysis). In kind it is in vivo. Particulars: for AUC(0-t): read-out: AUC(0–24 h); for concentration at 24 h: read-out: C(24 h); for bioavailability (general statement of the description): A: formulations compared with those of B or C modification, amorphous: in microsuspension form. How it is done: Four male beagle dogs (age 5 to 6 years, body weight 11 to 14 kg) received single oral doses of 2 mg/kg of 2-(3,5-bis-trifluoromethyl-phenyl)-N-[6-(1,1-dioxo-1λ^6-thiomorpholin-4-yl)-4-(4-fluoro-2-methyl-phenyl)-pyridin-3-yl]-N-methyl-isobutyramide form A and form B (cross-over study design). The formulation was a granulate of the finely milled compound with 20% sodium dodecyl sulfate (SDS) in gelatine capsules.
In addition, four male beagle dogs (age 4 to 7 years, body weight 11 to 14 kg) received a single oral dose of 2 mg/kg of 2-(3,5-bis-trifluoromethyl-phenyl)-N-[6-(1,1-dioxo-1λ^6-thiomorpholin-4-yl)-4-(4-fluoro-2-methyl-phenyl)-pyridin-3-yl]-N-methyl-isobutyramide form C as finely milled compound with 10% SDS in gelatine capsules. The dogs received 200 g commercial dog chow (Pal®, approx. 7% fat content) about 30 minutes before administration of the compound.
Two dogs (age 8 years, body weight 12 to 14 kg) received 5 mg/kg of 2-(3,5-bis-trifluoromethyl-phenyl)-N-[6-(1,1-dioxo-1λ^6-thiomorpholin-4-yl)-4-(4-fluoro-2-methyl-phenyl)-pyridin-3-yl]-N-methyl-isobutyramide as amorphous material orally by gavage as microsuspension. The dogs were fed before and during the experiment.
Plasma samples were drawn at several time points. 2-(3,5-bis-Trifluoromethyl-phenyl)-N-[6-(1,1-dioxo-1λ^6-thiomorpholin-4-yl)-4-(4-fluoro-2-methyl-phenyl)-pyridin-3-yl]-N-methyl-isobutyramide plasma concentrations were determined using a selective LC-MS method with a quantification limit of 10 ng/mL. Pharmacokinetic parameters (e.g. AUC, Cmax) were estimated by non-compartmental analysis using WinNonlin 3.1®.

Data set [2] in a line: Dynamic Vapor Sorption (DVS). In kind it is physicochemical. The conditions noted are these: from 0 to 90% RH. From the text: Dynamic Vapor Sorption (DVS)
Setting [3] is: male, beagle, dog, plasma, po, 2 mg/kg, mean, n=4, single oral 2 mg/kg, fed male beagle dogs, finely milled compound with 10% SDS in gelatine capsules.
Setting [4] is: single oral 2 mg/kg, fed male beagle dogs.
Where [5] appears, read: dog Charly, single oral 2 mg/kg, fed male beagle dog, cross-over, granulate with 20% SDS in gelatine capsules, 2 mg/kg.
[6] abbreviates: dog Lars, single oral 2 mg/kg, fed male beagle dog, cross-over, granulate with 20% SDS in gelatine capsules, 2 mg/kg.
Setting [7] is: dog Lupo, single oral 2 mg/kg, fed male beagle dog, cross-over, granulate with 20% SDS in gelatine capsules, 2 mg/kg.
The mark [8] stands for this setting: dog Mickey, single oral 2 mg/kg, fed male beagle dog, cross-over, granulate with 20% SDS in gelatine capsules, 2 mg/kg.
[9] abbreviates: mean, n=4, single oral 2 mg/kg, fed male beagle dogs, cross-over, granulate with 20% SDS in gelatine capsules, 2 mg/kg.
Setting [10] is: beagle, dog, plasma, po, 5 mg/kg, mean, n=2, single oral 5 mg/kg by gavage as microsuspension, fed dogs.
Setting [11] is: male, beagle, dog, plasma, po, 2 mg/kg, dog Lars, single oral 2 mg/kg, fed male beagle dog, cross-over, granulate with 20% SDS in gelatine capsules.
Setting [12] is: male, beagle, dog, plasma, po, 2 mg/kg, mean, n=4, single oral 2 mg/kg, fed male beagle dogs, cross-over, granulate with 20% SDS in gelatine capsules.
Where [13] appears, read: single oral 2 mg/kg, fed male beagle dogs, cross-over.

Consider 5 molecules from patent publication US7160881B2, “Crystalline modifications of 2-(3,5-bis-trifluoromethyl-phenyl)-N-[6-(1,1-dioxo-1 λ6-thiomorpholin-4-yl)-4-(4-fluoro-2-methyl-phenyl)-pyridin-3-yl]-N-methyl-isobutyramide” (Hoffmann-La Roche Inc., priority 2003, dated 2007).

Each structure is given as a SMILES string. Like-named read-outs stand apart in the source and are kept apart here.

As a reminder, the Cmax is the peak of the concentration-time curve. Broadly, the melting point is the temperature, or range, at which the solid turns liquid.

`Cc1cc(F)ccc1-c1cc(N2CCS(=O)(=O)CC2)ncc1N(C)C(=O)C(C)(C)c1cc(C(F)(F)F)cc(C(F)(F)F)c1` [Form C, 2-(3,5-bis-trifluoromethyl-phenyl)-N-[6-(1,1-dioxo-1λ^6-thiomorpholin-4-yl)-4-(4-fluoro-2-methyl-phenyl)-pyridin-3-yl]-N-methyl-isobutyramide]: in data set [1] (setting [3]), the AUC(0-t) is 2.66 µg·h/mL and the concentration at 24 h amounted to 0.0292 µg/mL. The Cmax in data set [1] (male, beagle, dog, plasma, po, 2 mg/kg, mean, n=4, single oral 2 mg/kg, fed male beagle dogs, finely milled compound with 10% SDS in gelatine capsules, read-out: Cmax) turned out to be 0.51 µg/mL. Also, the F in data set [1] (mean, n=4, single oral 2 mg/kg, fed male beagle dogs, finely milled compound with 10% SDS in gelatine capsules) is given as 13.3%. In data set [1] (setting [4]), the “mean AUC(0–24 h) compared with form A” value is on record as “approximately the same” and the “mean Cmax compared with form A” value is recorded as “approximately the same”.
Regarding `Cc1cc(F)ccc1-c1cc(N2CCS(=O)(=O)CC2)ncc1N(C)C(=O)C(C)(C)c1cc(C(F)(F)F)cc(C(F)(F)F)c1` [Example 7, 2-(3,5-Bis-trifluoromethyl-phenyl)-N-[6-(1,1-dioxo-1λ^6-thiomorpholin-4-yl)-4-(4-fluoro-2-methyl-phenyl)-pyridin-3-yl]-N-methyl-isobutyramide], the melting point was 135 to 138 °C.
For the molecule `Cc1cc(F)ccc1-c1cc(N2CCS(=O)(=O)CC2)ncc1N(C)C(=O)C(C)(C)c1cc(C(F)(F)F)cc(C(F)(F)F)c1` [Form B, 2-(3,5-bis-trifluoromethyl-phenyl)-N-[6-(1,1-dioxo-1λ^6-thiomorpholin-4-yl)-4-(4-fluoro-2-methyl-phenyl)-pyridin-3-yl]-N-methyl-isobutyramide], the “AUC(0–24 h)” value in data set [1] (setting [5]) amounted to 0.949 µg·h/mL; in data set [1] (setting [6]), 3.88 µg·h/mL; in data set [1] (setting [7]), 1.13 µg·h/mL; in data set [1] (setting [8]), 1.33 µg·h/mL; in data set [1] (setting [9]) it was 1.822 µg·h/mL. Further, the “C(24 h)” value is 0.0177 µg/mL in data set [1] (setting [5]); 0.0517 µg/mL in data set [1] (setting [6]); 0.0232 µg/mL in data set [1] (setting [7]); 0.0214 µg/mL in data set [1] (setting [8]); 0.0285 µg/mL in data set [1] (setting [9]). Moreover, the Cmax in data set [1] (setting [5]) came to 0.122 µg/mL; in data set [1] (setting [6]) it was 0.631 µg/mL; in data set [1] (setting [7]) it was 0.216 µg/mL; in data set [1] (setting [8]) it was 0.251 µg/mL; in data set [1] (setting [9]), 0.305 µg/mL. Also, the F in data set [1] (setting [5]) is given as 6.3%; in data set [1] (setting [6]), 21%; in data set [1] (setting [7]), 6.8%; in data set [1] (setting [8]), 8.2%; in data set [1] (setting [9]) it was 11.0%.
For `Cc1cc(F)ccc1-c1cc(N2CCS(=O)(=O)CC2)ncc1N(C)C(=O)C(C)(C)c1cc(C(F)(F)F)cc(C(F)(F)F)c1` [amorphous material, 2-(3,5-bis-trifluoromethyl-phenyl)-N-[6-(1,1-dioxo-1λ^6-thiomorpholin-4-yl)-4-(4-fluoro-2-methyl-phenyl)-pyridin-3-yl]-N-methyl-isobutyramide], in data set [1], the “bioavailability (general statement of the description)” value is given as “improved bioavailability”. Moreover, in data set [1] (beagle dogs, amorphous as microsuspension), the “exposure after oral administration (ranking of forms)” value is “highest”. Besides, the concentration at 24 h in data set [1] (beagle, dog, plasma, oral, 5 mg/kg, mean, n=2, 5 mg/kg oral microsuspension, values normalized to 2 mg/kg) was determined as 0.0492 µg/mL; in data set [1] (setting [10]), 0.123 µg/mL. Moreover, the AUC(0-t) in data set [1] (beagle, dog, plasma, po, 5 mg/kg, mean, n=2, 5 mg/kg oral microsuspension, values normalized to 2 mg/kg) was determined as 4.16 µg·h/mL; in data set [1] (setting [10]), 10.4 µg·h/mL. The Cmax in data set [1] (beagle, dog, plasma, po, 5 mg/kg, mean, n=2, 5 mg/kg oral microsuspension, values normalized to 2 mg/kg, read-out: Cmax) came out at 1.22 µg/mL; in data set [1] (beagle, dog, plasma, po, 5 mg/kg, mean, n=2, single oral 5 mg/kg by gavage as microsuspension, fed dogs, read-out: Cmax) it was 3.05 µg/mL. For the same molecule, the F in data set [1] (mean, n=2, 5 mg/kg oral microsuspension, values normalized to 2 mg/kg) was determined as 24.5%. For the same molecule, in data set [2], the “reversible uptake of water (DVS)” value worked out at 0.8 %-w/w.
With `Cc1cc(F)ccc1-c1cc(N2CCS(=O)(=O)CC2)ncc1N(C)C(=O)C(C)(C)c1cc(C(F)(F)F)cc(C(F)(F)F)c1` [Form A, 2-(3,5-bis-trifluoromethyl-phenyl)-N-[6-(1,1-dioxo-1λ^6-thiomorpholin-4-yl)-4-(4-fluoro-2-methyl-phenyl)-pyridin-3-yl]-N-methyl-isobutyramide], the “bioavailability (general statement of the description)” value in data set [1] is listed as “improved bioavailability”. Further, the “bioavailability among the three crystalline polymorphs A, B, and C” value in data set [1] (beagle dogs, powder in gelatine capsules containing sodium dodecyl sulfate) is given as “highest bioavailability”. Besides, the results for the “AUC(0–24 h)” value in data set [1] (setting [5]), in data set [1] (setting [7]) and in data set [1] (setting [8]) were 3.72 µg·h/mL, 2.49 µg·h/mL and 2.9 µg·h/mL, respectively. Also, the “C(24 h)” value in data set [1] (setting [5]) was 0.0476 µg/mL. The Cmax in data set [1] (setting [5]) was found to be 0.391 µg/mL; in data set [1] (male, beagle, dog, plasma, po, 2 mg/kg, dog Lars, single oral 2 mg/kg, fed male beagle dog, cross-over, granulate with 20% SDS in gelatine capsules, read-out: Cmax), 0.744 µg/mL; in data set [1] (male, beagle, dog, plasma, po, 2 mg/kg, dog Lupo, single oral 2 mg/kg, fed male beagle dog, cross-over, granulate with 20% SDS in gelatine capsules, read-out: Cmax), 0.424 µg/mL; in data set [1] (male, beagle, dog, plasma, po, 2 mg/kg, dog Mickey, single oral 2 mg/kg, fed male beagle dog, cross-over, granulate with 20% SDS in gelatine capsules, read-out: Cmax) it was 0.496 µg/mL; in data set [1] (male, beagle, dog, plasma, po, 2 mg/kg, mean, n=4, single oral 2 mg/kg, fed male beagle dogs, cross-over, granulate with 20% SDS in gelatine capsules, read-out: Cmax) it was 0.514 µg/mL. Also, the F amounted to 24.5% in data set [1] (setting [5]); 18.2% in data set [1] (setting [6]); 16.2% in data set [1] (setting [7]); 17.4% in data set [1] (setting [8]); 19.1% in data set [1] (setting [9]). Also, the AUC(0-t) came to 2.52 µg·h/mL in data set [1] (setting [11]) and 2.91 µg·h/mL in data set [1] (setting [12]). Further, the concentration at 24 h in data set [1] (setting [11]) amounted to 0.0282 µg/mL; in data set [1] (male, beagle, dog, plasma, po, 2 mg/kg, dog Lupo, single oral 2 mg/kg, fed male beagle dog, cross-over, granulate with 20% SDS in gelatine capsules), 0.0403 µg/mL; in data set [1] (male, beagle, dog, plasma, po, 2 mg/kg, dog Mickey, single oral 2 mg/kg, fed male beagle dog, cross-over, granulate with 20% SDS in gelatine capsules), 0.0298 µg/mL; in data set [1] (setting [12]), 0.0365 µg/mL. For the same molecule, in data set [1] (setting [13]), the “Mean Cmax, higher after form A as compared to form B” value worked out at 1.7 fold. Also, the “Mean oral bioavailability, higher after form A as compared to form B” value in data set [1] (setting [13]) was found to be 1.9 fold. Also, in data set [2] (listed as modification A), the “reversible uptake of water (DVS)” value is 3.1 %-w/w.
